The values that follow come from US4259235A, “Tricyclic nitrogenous compounds having string plant growth regulating properties” (BASF Aktiengesellschaft, priority 1977, dated 1981).

Data set [1] has as its system Galium apar. Nature of the data set: Herbicidal action, pre- and postemergence application in the greenhouse. The data set is classed as in vivo, Galium aparine. The conditions noted are these: post-emergence, 3.0 kg/ha POST, read-out: % damage. How it is done:
(§1) Plastic flowerpots having a volume of 300 cm^3 were filled with a sandy loam and the test plants placed therein (either as seed, as vegetatively reproduced species, or as potted plants, e.g., vines). For preemergence treatment, the active ingredients were suspended or emulsified in water as vehicle and sprayed onto the surface of the soil immediately after sowing by means of finely distributing nozzles. The potted vines were treated by spraying them with the correspondingly diluted liquor. For postemergence treatment, the agents were, as stated above, sprayed in water onto the leaves of the test plants, some liquor also falling onto the soil. In some special cases, solid active ingredients were first dissolved in dimethylformamide and then applied in a total liquor amount of 400 liters of water per hectare. For the postemergence treatment, the plants were first grown to a height of from 3 to 10 cm before being treated. With grasses, the first growth was cut, and the new growth treated 2 to 3 days after cutting. The temperature requirements of the plants were taken into account by placing them in cooler or warmer sections of the greenhouse. The experiments were run for from 4 to 6 weeks, during which time the plants were tended and their reaction to the various treatments was assessed.
(§2) The application rates are given in kg/ha of active ingredient, regardless of the method of application and the amount of water used.
(§3) A 0 to 100 scale was used for the evaluation, 0 denoting normal emergence or no damage (or no inhibition), and 100 denoting non-emergence or complete destruction of the plants. A distinction should be made in the influence on growth between desired changes without any appreciable disadvantageous phytotoxic effects (e.g., purely growth-regulating effects) and those of a phytotoxic herbicical character.

Data set [2] concerns Ipom. spp. The description is as above. The data set is classed as in vivo, Ipomoea spp. The conditions noted are these: Ipomoea, post-emergence; 3.0 kg/ha POST; read-out: % damage. The method, then: as §1, §2, §3
In data set [3] the test system is Mentha piper. The description is as above. The data set is classed as in vivo. The conditions noted are these: post-emergence; 3.0 kg/ha POST; read-out: % damage. How it is done: as §1, §2, §3
For data set [4], the system named is Lolium mult. Described as above. The conditions noted are these: Lolium, post-emergence, read-out: % damage. The data set is classed as in vivo. The method, then: as §1, §2, §3
In data set [5] the test system is Sinapis alba. The data set is described as above. The data set is classed as in vivo. The conditions noted are these: post-emergence, 3.0 kg/ha PRE, read-out: % damage. The method, then:
as §1, §2, §3

In data set [6] the test system is Poa pratensis. As to the kind of experiment: Shoot growth, postemergence treatment in the greenhouse (table 25). The data set is classed as in vivo. The method, then: as §1, §2, §3
Data set [7] concerns Arachys hypogaea. The data set is described as above. The data set is classed as in vivo. How it is done:
as §1, §2, §3

Data set [8] deals with Oryza sativa. The data set is described as above. The data set is classed as in vivo. The method, then:
as §1, §2, §3

Data set [9] deals with potted vines. As to the kind of experiment: Tolerance by potted vines in greenhouse; spray application. The data set is classed as in vivo. How it is done: as §1, §2, §3
Data set [10] relates to Hordeum vulgare. Nature of the data set: Shoot growth, postemergence treatment in the greenhouse (table 26). The data set is classed as in vivo. How it is done: as §1, §2, §3
Data set [11] relates to Euphorbia geniculata. The description is as above. The data set is classed as in vivo. The method, then: as §1, §2, §3
Data set [12] deals with Cynodon dactylon. The description is as above. The data set is classed as in vivo. The conditions noted are these: from seed. How it is done:
as §1, §2, §3

Data set [13] deals with Euphorbia geniculata. Nature of the data set: Inhibition of shoot growth by growth regulators, pre- and postemergence (table 27). The data set is classed as in vivo. The conditions noted are these: Euphorbia heterophylla, post-emergence, read-out: shoot growth inhibition (%). The method, then: as §1, §2, §3
Data set [14] deals with Medicago sativa. The data set is described as above. The data set is classed as in vivo. The conditions noted are these: post-emergence, read-out: shoot growth inhibition (%). How it is done: as §1, §2, §3
In data set [15] the test system is Cynodon dactyl. Nature of the data set: Shoot inhibition, pre- and postemergence treatment (table 28). The data set is classed as in vivo, Cynodon dactylon. The conditions noted are these: post-emergence, from seed, read-out: % shoot inhibition. How it is done: as §1, §2, §3
The subject of data set [16] is Glycine max. The data set is described as above. The data set is classed as in vivo. The conditions noted are these: post-emergence, read-out: % shoot inhibition. The method, then: as §1, §2, §3
For data set [17], the system named is Euphorbia genic. The description is as above. The data set is classed as in vivo, Euphorbia geniculata. The conditions noted are these: post-emergence, read-out: % shoot inhibition. The method, then:
as §1, §2, §3

Data set [18] deals with Arachys hypog. The description is as above. The data set is classed as in vivo, Arachys hypogaea. The conditions noted are these: post-emergence, read-out: % shoot inhibition. How it is done:
as §1, §2, §3

Molecules are shown by their SMILES. Where two headings read alike, the source gives them in different places.

For the molecule `ClC1C2CC(C3N=NC23)C1Nc1nccs1` (centres unmarked), the pest or weed control at 3000 g/ha in data set [1] turned out to be 80%; in data set [2], 80%; in [3], 100%; in [4] (3.0 kg/ha POST), 100%.
In the case of `FC(F)(F)c1cccc(NC2C(Br)C3CC2C2N=NC32)c1` (centres unmarked), the pest or weed control at 3000 g/ha in data set [1] stood at 90%; in [2] it was 100%; in data set [3], 95%; in data set [5] it was 95%; in data set [4] (3.0 kg/ha POST), 100%; in data set [4] (3.0 kg/ha PRE) it was 100%.
Consider `C[N+](C)(C)CCCl` [[ClCH2CH2N⊕(CH3)3]⊖, reference compound], for which the Shoot length is on record as 4 cm in data set [6] (1.0 kg/ha); 4 cm in data set [6] (2.0 kg/ha); 3 cm in data set [6] (4.0 kg/ha); 16 cm in [7] (1.0 kg/ha); 16 cm in data set [7] (2.0 kg/ha); 16 cm in data set [7] (4.0 kg/ha). The Shoot length in [8] (1.0 kg/ha), in [8] (2.0 kg/ha) and in data set [8] (4.0 kg/ha) was 20 cm throughout.
Turning to `BrC1C(Br)C2CC1C1N=NC21` (centres unmarked) [drawing 427], the “Potted vines - leaf damage” value in data set [9] (4.0 and 8.0 kg/ha) is listed as “none”. For the same molecule, the “Change in shoot growth” value in data set [9] (4.0 kg/ha) was 14.7 cm; in data set [9] (8.0 kg/ha) it was 13.3 cm.
In the case of `C1C2C3N=NC3C1C1OC21` (centres unmarked) [drawing 433], the “Leaf scorch (footnote x)” value in [6] (1.0, 2.0 and 4.0 kg/ha) was “limited leaf scorch”. Further, the Shoot length in data set [6] (1.0 kg/ha) is 2 cm; in [6] (2.0 kg/ha) it was 2 cm; in data set [6] (4.0 kg/ha) it was 2 cm; in [7] (1.0 kg/ha), 10 cm; in [7] (2.0 kg/ha), 10 cm; in [7] (4.0 kg/ha), 10 cm. For the same molecule, the Shoot length in [8] (1.0 kg/ha), in [8] (2.0 kg/ha) and in data set [8] (4.0 kg/ha) was 16 cm each time.
With `CN(C)NC(=O)CCC(=O)O` [drawing 434], the Shoot length in data set [6] (1.0 kg/ha) was found to be 4 cm; in data set [6] (2.0 kg/ha), 4 cm; in [6] (4.0 kg/ha) it was 4 cm; in data set [7] (1.0 kg/ha) it was 12 cm; in data set [7] (2.0 kg/ha) it was 5 cm; in [7] (4.0 kg/ha) it was 5 cm.
With `Clc1ccc(NC2C(Cl)C3CC2C2N=NC32)cc1` (centres unmarked) [drawing 435], the Shoot length in [10] (0.5 kg/ha) is 12.5 cm; in [10] (1.0 kg/ha), 12 cm; in [10] (2.0 kg/ha), 12 cm; in [11] (0.5 kg/ha), 9 cm; in [11] (1.0 kg/ha) it was 9 cm; in data set [11] (2.0 kg/ha), 9 cm. In addition, the Shoot length in data set [12] (1.0 kg/ha) and in data set [12] (2.0 kg/ha) was 5 cm each time.
Regarding `c1ccc(C2=NOC3C4CC(C5N=NC45)C23)cc1` (centres unmarked) [drawing 437], the inhibition at 500 g/ha in data set [13] (0.5 kg/ha PRE) came out at 33%. Further, the inhibition at 1000 g/ha in [13] (1.0 kg/ha PRE) came to 40%. Moreover, the inhibition at 2000 g/ha in [13] (2.0 kg/ha POST) is 30%; in data set [14] (2.0 kg/ha POST), 20%. Moreover, the inhibition at 4000 g/ha in data set [13] (4.0 kg/ha POST) stood at 30%; in data set [14] (4.0 kg/ha POST), 20%.
`CN(C)NC(=O)CCC(=O)O` [drawing 439]: the inhibition at 1000 g/ha in data set [15] (1.0 kg/ha POST) worked out at 20%; in [16] (1.0 kg/ha PRE), 0%; in [17] (1.0 kg/ha PRE), 0%; in [18] (1.0 kg/ha POST), 30%; in data set [18] (1.0 kg/ha PRE), 50%. For the same molecule, the inhibition at 2000 g/ha is 20% in [15] (2.0 kg/ha POST); 0% in data set [16] (2.0 kg/ha PRE); 0% in [17] (2.0 kg/ha PRE); 30% in data set [18] (2.0 kg/ha POST); 50% in data set [18] (2.0 kg/ha PRE).
With `C1C2C3N=NC3C1C1OC21` (centres unmarked) [drawing 445], the pest or weed control at 3000 g/ha in data set [1] is 60%; in data set [2] it was 100%; in data set [3], 100%; in data set [5] it was 90%; in data set [4] (3.0 kg/ha POST), 100%; in data set [4] (3.0 kg/ha PRE) it was 95%.

One may read the inhibition as the drop in the measured response relative to a control, in per cent.
